Assay results: PubChem BioAssay (NCI)
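How tested: cells in 96-well plates exposed to compound for 48 hours at five concentrations. GI50 is the concentration that inhibits growth by half. TGI denotes the concentration required for complete inhibition of growth.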

Columns and labels:
Test in all cases: DTP human tumour cell line panel, 48 h
RPMI-8226 leukemia = test system: RPMI-8226 leukemia
NCI-H226 lung = test system: NCI-H226 lung
CCRF-CEM leukemia = test system: CCRF-CEM leukemia
BT-549 breast = test system: BT-549 breast
MALME-3M melanoma = test system: MALME-3M melanoma
SK-MEL-5 melanoma = test system: SK-MEL-5 melanoma
HL-60(TB) leukemia = test system: HL-60(TB) leukemia
SNB-19 CNS = test system: SNB-19 CNS
LOX IMVI melanoma = test system: LOX IMVI melanoma
SR leukemia = test system: SR leukemia
HCC-2998 colon = test system: HCC-2998 colon
KM12 colon = test system: KM12 colon
DU-145 prostate = test system: DU-145 prostate
OVCAR-5 ovarian = test system: OVCAR-5 ovarian
NCI-H460 lung = test system: NCI-H460 lung
HCT-116 colon = test system: HCT-116 colon
U251 CNS = test system: U251 CNS
MDA-MB-435 = test system: MDA-MB-435
T-47D breast = test system: T-47D breast
SF-268 CNS = test system: SF-268 CNS
TK-10 renal = test system: TK-10 renal
K-562 leukemia = test system: K-562 leukemia
PC-3 prostate = test system: PC-3 prostate
HT29 colon = test system: HT29 colon
MCF7 breast = test system: MCF7 breast
SK-MEL-2 melanoma = test system: SK-MEL-2 melanoma
786-0 renal = test system: 786-0 renal
MOLT-4 leukemia = test system: MOLT-4 leukemia
SK-OV-3 ovarian = test system: SK-OV-3 ovarian
UACC-62 melanoma = test system: UACC-62 melanoma
A549 NSCLC = test system: A549 NSCLC
COLO 205 colon = test system: COLO 205 colon
HOP-92 NSCLC = test system: HOP-92 NSCLC
RXF 393 renal = test system: RXF 393 renal
A498 renal = test system: A498 renal
NCI-H23 lung = test system: NCI-H23 lung
HOP-62 NSCLC = test system: HOP-62 NSCLC
SF-539 CNS = test system: SF-539 CNS
NCI/ADR-RES ovarian = test system: NCI/ADR-RES ovarian
OVCAR-8 ovarian = test system: OVCAR-8 ovarian
UACC-257 melanoma = test system: UACC-257 melanoma
UO-31 renal = test system: UO-31 renal
NCI-H522 lung = test system: NCI-H522 lung
SNB-75 CNS = test system: SNB-75 CNS
OVCAR-3 ovarian = test system: OVCAR-3 ovarian
SK-MEL-28 melanoma = test system: SK-MEL-28 melanoma
M14 melanoma = test system: M14 melanoma
HCT-15 colon = test system: HCT-15 colon
ACHN renal = test system: ACHN renal
SW-620 colon = test system: SW-620 colon
CAKI-1 renal = test system: CAKI-1 renal
MDA-MB-231 breast = test system: MDA-MB-231 breast
SN12C renal = test system: SN12C renal
SF-295 CNS = test system: SF-295 CNS
HS 578T breast = test system: HS 578T breast
OVCAR-4 ovarian = test system: OVCAR-4 ovarian
IGROV1 ovarian = test system: IGROV1 ovarian

Compound: CC(C)n1nc(-c2cc3cc(O)ccc3[nH]2)c2c(N)ncnc21
- GI50 (RPMI-8226 leukemia): 70.5 nM
- TGI (RPMI-8226 leukemia): 1250 nM
- GI50 (NCI-H226 lung): 117 nM
- TGI (NCI-H226 lung): 1310 nM
- GI50 (CCRF-CEM leukemia): 345 nM
- TGI (CCRF-CEM leukemia): 4280 nM
- GI50 (BT-549 breast): 147 nM
- TGI (BT-549 breast): 1850 nM
- GI50 (MALME-3M melanoma): 26.9 nM
- TGI (MALME-3M melanoma): 265 nM
- GI50 (SK-MEL-5 melanoma): 171 nM
- TGI (SK-MEL-5 melanoma): 1430 nM
- GI50 (HL-60(TB) leukemia): 1260 nM
- TGI (HL-60(TB) leukemia): 5770 nM
- GI50 (SNB-19 CNS): 1520 nM
- TGI (SNB-19 CNS): 17900 nM
- GI50 (LOX IMVI melanoma): 309 nM
- GI50 (SR leukemia): 191 nM
- TGI (SR leukemia): 2930 nM
- GI50 (HCC-2998 colon): 572 nM
- TGI (HCC-2998 colon): 17800 nM
- GI50 (KM12 colon): 307 nM
- TGI (KM12 colon): 10800 nM
- GI50 (DU-145 prostate): 498 nM
- TGI (DU-145 prostate): 12000 nM
- GI50 (OVCAR-5 ovarian): 244 nM
- TGI (OVCAR-5 ovarian): 8980 nM
- GI50 (NCI-H460 lung): 127 nM
- TGI (NCI-H460 lung): 9380 nM
- GI50 (HCT-116 colon): 634 nM
- TGI (HCT-116 colon): 14400 nM
- GI50 (U251 CNS): 565 nM
- TGI (U251 CNS): 10900 nM
- GI50 (MDA-MB-435): 219 nM
- TGI (MDA-MB-435): 1770 nM
- GI50 (T-47D breast): 43.5 nM
- TGI (T-47D breast): 417 nM
- GI50 (SF-268 CNS): 224 nM
- TGI (SF-268 CNS): 4780 nM
- GI50 (TK-10 renal): 178 nM
- TGI (TK-10 renal): 2310 nM
- GI50 (K-562 leukemia): 579 nM
- TGI (K-562 leukemia): 36100 nM
- GI50 (PC-3 prostate): 86 nM
- TGI (PC-3 prostate): 6450 nM
- GI50 (HT29 colon): 465 nM
- TGI (HT29 colon): 28700 nM
- GI50 (MCF7 breast): 128 nM
- TGI (MCF7 breast): 7860 nM
- GI50 (SK-MEL-2 melanoma): 229 nM
- TGI (SK-MEL-2 melanoma): 1950 nM
- GI50 (786-0 renal): 294 nM
- TGI (786-0 renal): 2880 nM
- GI50 (MOLT-4 leukemia): 315 nM
- TGI (MOLT-4 leukemia): 6200 nM
- GI50 (SK-OV-3 ovarian): 140 nM
- TGI (SK-OV-3 ovarian): 754 nM
- GI50 (UACC-62 melanoma): 161 nM
- TGI (UACC-62 melanoma): 962 nM
- GI50 (A549 NSCLC): 313 nM
- TGI (A549 NSCLC): 2670 nM
- GI50 (COLO 205 colon): 363 nM
- TGI (COLO 205 colon): 4190 nM
- GI50 (HOP-92 NSCLC): 34.4 nM
- TGI (HOP-92 NSCLC): 483 nM
- GI50 (RXF 393 renal): 121 nM
- TGI (RXF 393 renal): 661 nM
- GI50 (A498 renal): 19.4 nM
- TGI (A498 renal): 123 nM
- GI50 (NCI-H23 lung): 317 nM
- TGI (NCI-H23 lung): 9190 nM
- GI50 (HOP-62 NSCLC): 393 nM
- TGI (HOP-62 NSCLC): 3560 nM
- GI50 (SF-539 CNS): 309 nM
- TGI (SF-539 CNS): 2180 nM
- GI50 (NCI/ADR-RES ovarian): 348 nM
- TGI (NCI/ADR-RES ovarian): 7220 nM
- GI50 (OVCAR-8 ovarian): 314 nM
- TGI (OVCAR-8 ovarian): 3210 nM
- GI50 (UACC-257 melanoma): 161 nM
- TGI (UACC-257 melanoma): 1700 nM
- GI50 (UO-31 renal): 46.4 nM
- TGI (UO-31 renal): 726 nM
- GI50 (NCI-H522 lung): 97.4 nM
- TGI (NCI-H522 lung): 2020 nM
- GI50 (SNB-75 CNS): 37.7 nM
- TGI (SNB-75 CNS): 502 nM
- GI50 (OVCAR-3 ovarian): 220 nM
- TGI (OVCAR-3 ovarian): 2750 nM
- GI50 (SK-MEL-28 melanoma): 120 nM
- TGI (SK-MEL-28 melanoma): 1670 nM
- GI50 (M14 melanoma): 151 nM
- TGI (M14 melanoma): 1800 nM
- GI50 (HCT-15 colon): 342 nM
- TGI (HCT-15 colon): 13900 nM
- GI50 (ACHN renal): 224 nM
- TGI (ACHN renal): 5180 nM
- GI50 (SW-620 colon): 1310 nM
- TGI (SW-620 colon): 14200 nM
- GI50 (CAKI-1 renal): 262 nM
- TGI (CAKI-1 renal): 1770 nM
- GI50 (MDA-MB-231 breast): 296 nM
- TGI (MDA-MB-231 breast): 17400 nM
- GI50 (SN12C renal): 175 nM
- TGI (SN12C renal): 6430 nM
- GI50 (SF-295 CNS): 122 nM
- TGI (SF-295 CNS): 870 nM
- GI50 (HS 578T breast): 109 nM
- TGI (HS 578T breast): 503 nM
- GI50 (OVCAR-4 ovarian): 82.7 nM
- TGI (OVCAR-4 ovarian): 923 nM
- GI50 (IGROV1 ovarian): 94.5 nM
- TGI (IGROV1 ovarian): 774 nM
